What was measured:
[1] = target: HER2 (A775_G776insYVMA) expressing Ba/F3 stable cell line (Homo sapiens, UniProt P04626, DUP772-775, cells depend on it); assay: Cellular proliferation (Alamar Blue) assay, HER2 A775_G776insYVMA Ba/F3; assay type: cell-based; conditions: 72 hr, read-out: YVMA IC50
Experimental: • 1. EGFR(D770_N771insSVD) expressing Ba/F3 stable cell line • 2. EGFR (A767_dupASV) expressing Ba/F3 stable cell line • 3. A431 cells • 4. EGFR (H773insNPH) expressing Ba/F3 stable cell line • 5. HER2 (A775_G776insYVMA) expressing Ba/F3 stable cell line Assay Procedure: • 1. Seed cells at 5000 for A431 and 15,000 cells for Ba/F3 in 100 μL/well in complete media (for A431: DMEM with […] and for Ba/F3 cells: RPMI with 10% FBS) in 96-well tissue culture plate. Leave outer wells without cells for background measurements. Incubate at 37 degree Celsius in […] humidified incubator for 16-18 hours. • 2. Add 0.025 ml of 5× concentration compound dilution or DMSO control. Final compound concentration range is 10-0.0005 μM prepared in 3-fold serial dilutions. Incubate for 72 hr at 37 degree Celsius in […] humidified incubator. • 3. Add 0.0125 ml Alamar Blue™ reagent to each well with multi-channel pipette and tap gently on each side of the plate to mix. Incubate for 3 hours at 37 degree Celsius in 5% CO2 humidified incubator. • 4. […] Data analysis was performed using XLfit 5.5.0.5.

[2] = tested on: A431 cells; assay: Cellular proliferation (Alamar Blue) assay, A431; assay type: cell-based; conditions: Homo sapiens, A-431; A431 cells, 72 hr, Alamar Blue; read-out: A431 IC50

Sequence of HER2 (A775_G776insYVMA) expressing Ba/F3 stable cell line (P04626 with tags, fused parts or gaps DUP772-775): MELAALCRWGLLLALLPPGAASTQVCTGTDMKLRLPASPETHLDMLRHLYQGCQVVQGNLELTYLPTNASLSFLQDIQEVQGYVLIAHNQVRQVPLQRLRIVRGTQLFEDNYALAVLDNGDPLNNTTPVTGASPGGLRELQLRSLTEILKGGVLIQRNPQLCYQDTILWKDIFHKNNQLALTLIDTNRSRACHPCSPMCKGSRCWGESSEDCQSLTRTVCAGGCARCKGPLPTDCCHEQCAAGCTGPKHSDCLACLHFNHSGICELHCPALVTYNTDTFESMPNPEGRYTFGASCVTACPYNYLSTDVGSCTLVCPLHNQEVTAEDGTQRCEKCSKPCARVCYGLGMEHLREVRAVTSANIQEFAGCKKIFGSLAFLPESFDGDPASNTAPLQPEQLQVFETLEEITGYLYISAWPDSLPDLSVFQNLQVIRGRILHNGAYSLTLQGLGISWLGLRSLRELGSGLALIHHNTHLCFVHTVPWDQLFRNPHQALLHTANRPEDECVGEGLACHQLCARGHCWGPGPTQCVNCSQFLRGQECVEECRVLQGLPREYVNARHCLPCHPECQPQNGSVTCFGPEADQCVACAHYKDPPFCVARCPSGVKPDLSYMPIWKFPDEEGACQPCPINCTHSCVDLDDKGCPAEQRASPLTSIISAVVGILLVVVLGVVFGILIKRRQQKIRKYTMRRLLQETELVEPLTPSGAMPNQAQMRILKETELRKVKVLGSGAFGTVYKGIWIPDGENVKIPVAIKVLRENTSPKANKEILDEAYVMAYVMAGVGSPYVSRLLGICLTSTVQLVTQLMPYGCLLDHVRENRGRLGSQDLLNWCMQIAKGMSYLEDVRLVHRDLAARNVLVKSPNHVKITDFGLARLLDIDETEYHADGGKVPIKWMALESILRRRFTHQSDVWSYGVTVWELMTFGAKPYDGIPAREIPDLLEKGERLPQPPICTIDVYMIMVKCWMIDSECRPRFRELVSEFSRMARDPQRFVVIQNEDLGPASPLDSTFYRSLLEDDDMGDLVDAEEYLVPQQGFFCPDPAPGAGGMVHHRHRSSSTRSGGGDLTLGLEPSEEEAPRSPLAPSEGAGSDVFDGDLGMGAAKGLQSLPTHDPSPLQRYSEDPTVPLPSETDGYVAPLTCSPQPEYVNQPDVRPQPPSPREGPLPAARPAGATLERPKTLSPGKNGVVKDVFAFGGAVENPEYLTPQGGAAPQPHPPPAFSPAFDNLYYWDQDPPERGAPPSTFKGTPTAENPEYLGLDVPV

SMILES | GI50 [1] [nM] | IC50 [2] [nM]
C=CC(=O)Nc1ccc(F)c(Nc2nc(Nc3cnn(C)c3)ncc2C2=CCOC2)c1 [Compound 261, N-(3-{[5-(2,5-dihydrofuran-3-yl)-2-[(1-methyl-1H-pyrazol-4-yl)amino]pyrimidin-4-yl]amino}-4-fluorophenyl) prop-2-enamide] | 222 | 195
C=CC(=O)Nc1ccc(F)c(Nc2nc(Nc3cnn(C)c3)ncc2-c2cccc3ncccc23)c1 [Compound 262, N-(4-fluoro-3-((2-((1-methyl-1H-pyrazol-4-yl)amino)-5-(quinolin-5-yl)pyrimidin-4-yl)amino)phenyl)acrylamide] | 4430 | 
C=CC(=O)Nc1ccc(F)c(Nc2nc(Nc3cn(C)nc3Cl)ncc2-c2ccccc2F)c1 [Compound 264, N-(3-((2-((3-chloro-1-methyl-1H-pyrazol-4-yl)amino)-5-(2-fluorophenyl)pyrimidin-4-yl)amino)-4-fluorophenyl)acrylamide] | 465 | 145
C=CC(=O)Nc1ccc(F)c(Nc2nc(Nc3cnn(C)c3)ncc2C2CCOC2)c1 (stereo not shown) [Compound 266, N-{4-fluoro-3-([2-[(1-methyl-1H-pyrazol-4-yl)amino]-5-(oxolan-3-yl)pyrimidin-4-yl}amino)phenyl] prop-2-enamide] | 1380 | 768
C=CC(=O)Nc1ccc(F)c(Nc2nc(Nc3cnn(C)c3)ncc2-c2ccccc2N(C)C)c1 [Compound 267, N-(3-((5-(2-(dimethylamino)phenyl)-2-((1-methyl-1H-pyrazol-4-yl)amino)pyrimidin-4-yl)amino)-4-fluorophenyl)acrylamide] | > 10000 | 5800
C=CC(=O)Nc1ccc(F)c(Nc2nc(Nc3cnn(C)c3)ncc2-c2cccc3ccncc23)c1 [Compound 268, N-(4-fluoro-3-((5-(isoquinolin-8-yl)-2-((1-methyl-1H-pyrazol-4-yl)amino)pyrimidin-4-yl)amino)phenyl)acrylamide] | > 10000 | 3440
C=CC(=O)Nc1ccc(F)c(Nc2nc(Nc3cnn(C)c3)ncc2N2CCCCC2)c1 [Compound 269, N-(4-fluoro-3-((2-((1-methyl-1H-pyrazol-4-yl)amino)-5-(piperidin-1-yl)pyrimidin-4-yl)amino)phenyl)acrylamide] | > 10000 | 5610
C=CC(=O)Nc1ccc(F)c(Nc2nc(Nc3cnn(C)c3)ncc2-c2ccc3c(cnn3C)c2)c1 [Compound 270, N-(4-fluoro-3-((5-(1-methyl-1H-indazol-5-yl)-2-((1-methyl-1H-pyrazol-4-yl)amino)pyrimidin-4-yl)amino)phenyl)acrylamide] | 985 | 190
C=CC(=O)Nc1ccc(F)c(Nc2nc(Nc3cnn(C(C)(C)C#N)c3)ncc2Br)c1 [Compound 271, N-(3-((5-bromo-2-((1-(2-cyanopropan-2-yl)-1H-pyrazol-4-yl)amino)pyrimidin-4-yl)amino)-4-fluorophenyl)acrylamide] | 2160 | 2960
C=CC(=O)Nc1ccc(F)c(Nc2nc(Nc3cnn(C(C)(C)C#N)c3)ncc2C2=CCOC2)c1 [Compound 272, N-(3-((2-((1-(2-cyanopropan-2-yl)-1H-pyrazol-4-yl)amino)-5-(2,5-dihydrofuran-3-yl)pyrimidin-4-yl)amino)-4-fluorophenyl)acrylamide] | 602 | 1010
C=CC(=O)Nc1ccc(F)c(Nc2nc(Nc3cnn(CC(C)(C)O)c3)ncc2Br)c1 [Compound 273, N-(3-((5-bromo-2-((1-(2-hydroxy-2-methylpropyl)-1H-pyrazol-4-yl)amino)pyrimidin-4-yl)amino)-4-fluorophenyl)acrylamide] | 2630 | 3930
C=CC(=O)Nc1cccc(Nc2ncc(Cl)c(Nc3cnn(C)c3)n2)c1 [Compound 275, N-(3-((5-chloro-4-((1-methyl-1H-pyrazol-4-yl)amino)pyrimidin-2-yl)amino)phenyl)acrylamide] | 3050 | 1430
C=CC(=O)Nc1ccc(F)c(Nc2nc(Nc3cnn(C)c3)ncc2-c2ccc(OCc3cccc(F)c3)cc2)c1 [Compound 276, N-(4-fluoro-3-((5-(4-((3-fluorobenzyl)oxy)phenyl)-2-((1-methyl-1H-pyrazol-4-yl)amino)pyrimidin-4-yl)amino)phenyl)acrylamide] | 861 | 278
C=CC(=O)Nc1ccc(F)c(Nc2nc(Nc3cnn(C)c3)ncc2-c2ccc3[nH]ncc3c2)c1 [Compound 277, N-(3-((5-(1H-indazol-5-yl)-2-((1-methyl-1H-pyrazol-4-yl)amino)pyrimidin-4-yl)amino)-4-fluorophenyl)acrylamide] | 645 | 293
C=CC(=O)Nc1ccc(F)c(Nc2nc(Nc3cnn(C)c3)ncc2-c2ccn3ncnc3c2)c1 [Compound 278, N-(3-((5-([1,2,4]triazolo[1,5-a]pyridin-7-yl)-2-((1-methyl-1H-pyrazol-4-yl)amino)pyrimidin-4-yl)amino)-4-fluorophenyl)acrylamide] | 444 | 73
C=CC(=O)Nc1cccc(Nc2nc(Nc3cnn(C)c3)ncc2F)c1 [Compound 280, N-[3-({5-fluoro-2-[(1-methyl-1H-pyrazol-4-yl)amino]pyrimidin-4-yl}amino)phenyl]prop-2-enamide] | 5160 | 520
C=CC(=O)Nc1cc(Br)cc(Nc2nc(Nc3cnn(C)c3)ncc2Cl)c1 [Compound 283, N-[3-bromo-5-({5-chloro-2-[(1-methyl-1H-pyrazol-4-yl)amino]pyrimidin-4-yl}amino)phenyl]prop-2-enamide] | 1480 | 617
C=CC(=O)Nc1ccc(F)c(Nc2nc(Nc3cnn(CCN(C)C)c3)ncc2Cl)c1 [Compound 284, N-(3-((5-chloro-2-((1-(2-(dimethylamino)ethyl)-1H-pyrazol-4-yl)amino)pyrimidin-4-yl)amino)-4-fluorophenyl)acrylamide] | 874 | 536
C=CC(=O)Nc1ccc(F)c(Nc2nc(Nc3ccc(CN(C)C)cc3)ncc2Cl)c1 [Compound 287, N-(3-((5-chloro-2-((4-((dimethylamino)methyl)phenyl)amino)pyrimidin-4-yl)amino)-4-fluorophenyl)acrylamide] | 764 | 473
C=CC(=O)Nc1ccc(F)c(Nc2nc(Nc3ccc(N(C)CCN(C)C)cc3)ncc2Cl)c1 [Compound 288, N-(3-((5-chloro-2-((4-((2-(dimethylamino)ethyl)(methyl)amino)phenyl)amino)pyrimidin-4-yl)amino)-4-fluorophenyl)acrylamide] | 3040 | 4910
C=CC(=O)Nc1cc(Br)cc(Nc2nc(Nc3cnn(C)c3)ncc2-c2ccc(C(F)(F)F)cc2)c1 [Compound 290, N-[3-bromo-5-({2-[(1-methyl-1H-pyrazol-4-yl)amino]-5-[4-(trifluoromethyl)phenyl]pyrimidin-4-yl}amino)phenyl]prop-2-enamide] | 2920 | > 9780
C=CC(=O)Nc1cc(Nc2nc(Nc3cnn(C)c3)ncc2Cl)cc(C(F)(F)F)c1 [Compound 291, N-(3-((5-chloro-2-((1-methyl-1H-pyrazol-4-yl)amino)pyrimidin-4-yl)amino)-5-(trifluoromethyl)phenyl)acrylamide] | 1840 | > 10000
